Test results: US4117122A, “11-Aminoalkylmorphanthridin-11-ols” (Richardson-Merrell Inc., priority 1976, dated 1978)

Assays:
[1] = Excerpt: (§1) The compounds of the present invention are unique in pharmacologic activity.
[2] = system: reserpine-induced depression; test: antagonism of reserpine-induced depression in mice (standard antidepressant test); type: in vivo; details: for antidepressant potency relative to imipramine: compared with imipramine; for antagonism of reserpine-induced depression: mice, intraperitoneal doses of 5 to 30 mg/kg
Excerpt: as §1

[3] = oral LD50 in standard animal tests; type: in vivo; details: for LD50: in vivo, standard animal tests, approximately
Excerpt: as §1

Compound | anticholinergic activity [1] | antidepressant potency relative to imipramine [2] | antagonism of reserpine-induced depression [2] | oral LD50 compared with imipramine [3] | LD50 [3] [mg/kg]
CN(C)CCCC1(O)c2ccccc2C=Nc2ccccc21 (stereo not shown) [11-(3-Dimethylaminopropyl)morphanthridin-11-ol] | no significant anticholinergic activity | at least ten times more potent than that of imipramine | antagonize reserpine-induced depression in mice | substantially greater than that of imipramine | ~130
CN(C)CCCC1(O)c2ccccc2CNc2ccc(Cl)cc21 (stereo not shown) [2-Chloro-11-(3-dimethylaminopropyl)-5,6-dihydromorphanthridin-11-ol] | no significant anticholinergic activity | at least ten times more potent than that of imipramine | antagonize reserpine-induced depression in mice | substantially greater than that of imipramine | ~175
